Reference: publication PMC10838953

Legend:
Assay in all cases: biochemical
Conditions in all cases: read-out: %Ctrl @ 2000nM
[1] = target: DCAMKL1 (Homo sapiens, UniProt O15075)
[2] = target: TYK2(JH1domain-catalytic) (Homo sapiens, UniProt P29597)
[3] = target: ERBB2 (Homo sapiens, UniProt P04626)
[4] = target: EIF2AK1 (Homo sapiens, UniProt Q9BQI3)
[5] = target: MELK (Homo sapiens, UniProt Q14680)
[6] = target: RSK3(Kin.Dom.1-N-terminal) (Homo sapiens, UniProt Q15349)
[7] = target: CAMK1G (Homo sapiens, UniProt Q96NX5)
Chain of CAMK1G (Q96NX5 whole entry): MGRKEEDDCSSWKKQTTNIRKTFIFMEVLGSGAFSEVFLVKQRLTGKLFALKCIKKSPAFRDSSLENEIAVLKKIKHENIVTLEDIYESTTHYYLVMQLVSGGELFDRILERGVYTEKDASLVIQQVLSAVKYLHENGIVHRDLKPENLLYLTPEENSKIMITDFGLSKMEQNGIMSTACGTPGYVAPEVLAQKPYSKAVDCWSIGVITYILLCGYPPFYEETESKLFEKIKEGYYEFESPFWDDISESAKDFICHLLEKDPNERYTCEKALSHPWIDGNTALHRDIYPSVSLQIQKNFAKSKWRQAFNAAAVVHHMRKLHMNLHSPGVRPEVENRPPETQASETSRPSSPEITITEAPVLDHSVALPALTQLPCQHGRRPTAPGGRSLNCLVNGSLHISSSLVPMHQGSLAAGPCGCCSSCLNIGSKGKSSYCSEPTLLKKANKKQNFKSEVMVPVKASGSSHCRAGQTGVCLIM

[8] = target: PCTK3 (Homo sapiens, UniProt Q07002)
Chain of PCTK3 (Q07002 whole entry): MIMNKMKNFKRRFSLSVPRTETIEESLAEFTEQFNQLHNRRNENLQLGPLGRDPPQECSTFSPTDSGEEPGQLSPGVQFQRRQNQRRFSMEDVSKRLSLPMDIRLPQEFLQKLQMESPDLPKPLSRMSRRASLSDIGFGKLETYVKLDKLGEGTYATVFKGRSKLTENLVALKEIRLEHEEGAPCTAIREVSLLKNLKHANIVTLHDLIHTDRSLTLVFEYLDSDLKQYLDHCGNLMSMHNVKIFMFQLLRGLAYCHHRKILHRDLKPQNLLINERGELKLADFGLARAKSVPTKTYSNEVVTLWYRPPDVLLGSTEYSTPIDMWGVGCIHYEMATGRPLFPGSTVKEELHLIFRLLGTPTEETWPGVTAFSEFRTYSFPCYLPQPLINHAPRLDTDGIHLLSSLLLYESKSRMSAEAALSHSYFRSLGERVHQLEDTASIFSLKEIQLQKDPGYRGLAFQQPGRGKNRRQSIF

[9] = target: FLT3(D835V) (Homo sapiens, UniProt P36888, D835V)
[10] = target: MST4 (Homo sapiens, UniProt Q9P289)
[11] = target: JNK3 (Homo sapiens, UniProt P53779)
[12] = target: AURKC (Homo sapiens, UniProt Q9UQB9)
[13] = target: MINK (Homo sapiens, UniProt Q8N4C8)
[14] = target: TYRO3 (Homo sapiens, UniProt Q06418)
Chain of TYRO3 (Q06418 41-890): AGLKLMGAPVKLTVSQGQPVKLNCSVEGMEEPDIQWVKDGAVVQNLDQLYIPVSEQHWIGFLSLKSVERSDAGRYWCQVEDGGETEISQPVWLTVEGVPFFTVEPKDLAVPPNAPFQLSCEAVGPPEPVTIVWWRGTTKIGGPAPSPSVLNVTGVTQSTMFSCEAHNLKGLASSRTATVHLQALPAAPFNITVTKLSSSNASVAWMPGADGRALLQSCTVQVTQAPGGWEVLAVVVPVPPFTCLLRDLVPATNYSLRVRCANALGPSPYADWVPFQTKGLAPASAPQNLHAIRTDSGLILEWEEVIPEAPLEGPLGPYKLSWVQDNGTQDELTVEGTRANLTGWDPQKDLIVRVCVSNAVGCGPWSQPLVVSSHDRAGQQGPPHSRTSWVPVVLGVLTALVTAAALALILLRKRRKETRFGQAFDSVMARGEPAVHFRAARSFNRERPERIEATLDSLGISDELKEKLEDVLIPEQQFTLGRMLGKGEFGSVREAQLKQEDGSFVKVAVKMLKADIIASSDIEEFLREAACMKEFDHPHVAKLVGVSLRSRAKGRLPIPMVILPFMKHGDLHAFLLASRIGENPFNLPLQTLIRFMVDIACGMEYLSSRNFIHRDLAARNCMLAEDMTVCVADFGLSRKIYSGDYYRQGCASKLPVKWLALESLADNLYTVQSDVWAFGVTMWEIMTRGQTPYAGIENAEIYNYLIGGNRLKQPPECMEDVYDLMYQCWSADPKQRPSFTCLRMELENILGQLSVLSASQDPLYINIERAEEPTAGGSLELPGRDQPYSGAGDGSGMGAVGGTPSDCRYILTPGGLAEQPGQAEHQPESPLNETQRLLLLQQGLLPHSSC

[15] = target: ABL1(F317I)-phosphorylated (Homo sapiens, UniProt P00519, F317I)
[16] = target: DYRK2 (Homo sapiens, UniProt Q92630)
[17] = target: INSRR (Homo sapiens, UniProt P14616)
[18] = target: DYRK1A (Homo sapiens, UniProt Q13627)
[19] = target: TRKC (Homo sapiens, UniProt Q16288)
[20] = target: AKT2 (Homo sapiens, UniProt P31751)
[21] = target: AKT1 (Homo sapiens, UniProt P31749)
[22] = target: BRAF(V600E) (Homo sapiens, UniProt P15056, V600E)
[23] = target: MARK4 (Homo sapiens, UniProt Q96L34)
[24] = target: PKMYT1 (Homo sapiens, UniProt Q99640)
[25] = target: NEK9 (Homo sapiens, UniProt Q8TD19)
[26] = target: PIK3CA (Homo sapiens, UniProt P42336)
[27] = target: p38-alpha (Homo sapiens, UniProt Q16539)
[28] = target: TLK2 (Homo sapiens, UniProt Q86UE8)
[29] = target: LZK (Homo sapiens, UniProt O43283)
[30] = target: TSSK3 (Homo sapiens, UniProt Q96PN8)
Chain of TSSK3 (Q96PN8 whole entry): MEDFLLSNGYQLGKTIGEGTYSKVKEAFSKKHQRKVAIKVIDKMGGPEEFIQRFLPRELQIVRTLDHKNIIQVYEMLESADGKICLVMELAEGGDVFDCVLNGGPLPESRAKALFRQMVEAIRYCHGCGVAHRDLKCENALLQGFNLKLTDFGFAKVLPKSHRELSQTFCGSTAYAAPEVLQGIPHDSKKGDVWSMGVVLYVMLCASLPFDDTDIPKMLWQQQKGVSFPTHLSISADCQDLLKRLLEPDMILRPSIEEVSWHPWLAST

[31] = target: LTK (Homo sapiens, UniProt P29376)
[32] = target: PRKD3 (Homo sapiens, UniProt O94806)
[33] = target: LATS1 (Homo sapiens, UniProt O95835)
[34] = target: DRAK1 (Homo sapiens, UniProt Q9UEE5)
[35] = target: GSK3B (Homo sapiens, UniProt P49841)
[36] = target: MAP3K4 (Homo sapiens, UniProt Q9Y6R4)
[37] = target: CDC2L1 (Homo sapiens, UniProt P21127)
[38] = target: GRK3 (Homo sapiens, UniProt P35626)
Chain of GRK3 (P35626 whole entry): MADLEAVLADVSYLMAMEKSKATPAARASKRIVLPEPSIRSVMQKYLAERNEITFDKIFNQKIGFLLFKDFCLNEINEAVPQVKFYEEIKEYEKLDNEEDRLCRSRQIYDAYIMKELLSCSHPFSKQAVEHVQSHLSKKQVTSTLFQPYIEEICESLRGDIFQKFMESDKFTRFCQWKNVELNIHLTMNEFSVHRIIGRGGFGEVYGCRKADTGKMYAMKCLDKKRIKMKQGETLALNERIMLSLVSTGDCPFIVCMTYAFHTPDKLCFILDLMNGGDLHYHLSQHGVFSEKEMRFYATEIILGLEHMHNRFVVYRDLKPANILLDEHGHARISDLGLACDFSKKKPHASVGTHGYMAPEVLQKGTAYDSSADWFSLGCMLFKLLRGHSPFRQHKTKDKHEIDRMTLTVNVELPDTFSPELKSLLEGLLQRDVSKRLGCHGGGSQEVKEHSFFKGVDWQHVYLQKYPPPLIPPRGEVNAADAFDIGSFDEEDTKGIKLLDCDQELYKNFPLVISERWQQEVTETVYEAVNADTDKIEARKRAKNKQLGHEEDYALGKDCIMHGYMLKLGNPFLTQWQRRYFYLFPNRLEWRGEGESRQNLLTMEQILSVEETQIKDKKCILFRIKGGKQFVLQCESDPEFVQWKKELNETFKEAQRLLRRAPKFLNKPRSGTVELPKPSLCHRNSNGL

[39] = target: FGFR4 (Homo sapiens, UniProt P22455)
[40] = target: VRK2 (Homo sapiens, UniProt Q86Y07)
Chain of VRK2 (Q86Y07 whole entry): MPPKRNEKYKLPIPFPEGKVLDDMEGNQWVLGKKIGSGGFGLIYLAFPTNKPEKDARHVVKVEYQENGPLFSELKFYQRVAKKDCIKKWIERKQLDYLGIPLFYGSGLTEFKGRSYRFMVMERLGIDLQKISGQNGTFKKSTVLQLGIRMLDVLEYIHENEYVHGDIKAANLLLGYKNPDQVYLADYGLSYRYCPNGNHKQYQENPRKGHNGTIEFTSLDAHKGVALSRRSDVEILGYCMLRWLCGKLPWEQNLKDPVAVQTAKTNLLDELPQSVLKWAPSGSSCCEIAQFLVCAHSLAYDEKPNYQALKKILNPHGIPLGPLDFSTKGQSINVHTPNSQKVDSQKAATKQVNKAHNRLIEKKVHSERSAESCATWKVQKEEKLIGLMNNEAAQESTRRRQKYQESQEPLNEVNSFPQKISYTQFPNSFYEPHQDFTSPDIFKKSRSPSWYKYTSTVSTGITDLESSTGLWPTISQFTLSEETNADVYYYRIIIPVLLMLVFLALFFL

[41] = target: PRKCQ (Homo sapiens, UniProt Q04759)
[42] = target: NEK6 (Homo sapiens, UniProt Q9HC98)
Chain of NEK6 (Q9HC98 whole entry): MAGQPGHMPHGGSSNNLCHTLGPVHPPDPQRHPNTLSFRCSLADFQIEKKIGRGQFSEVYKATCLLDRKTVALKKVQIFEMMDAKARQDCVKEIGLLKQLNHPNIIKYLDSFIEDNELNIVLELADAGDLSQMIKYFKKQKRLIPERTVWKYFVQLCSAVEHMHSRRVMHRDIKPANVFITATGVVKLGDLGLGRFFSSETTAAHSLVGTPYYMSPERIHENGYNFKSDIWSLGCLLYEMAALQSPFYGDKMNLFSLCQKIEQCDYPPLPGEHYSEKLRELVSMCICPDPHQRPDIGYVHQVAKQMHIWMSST

[43] = target: CDKL5 (Homo sapiens, UniProt O76039)

Chain of ERBB2 (P04626 23-1255): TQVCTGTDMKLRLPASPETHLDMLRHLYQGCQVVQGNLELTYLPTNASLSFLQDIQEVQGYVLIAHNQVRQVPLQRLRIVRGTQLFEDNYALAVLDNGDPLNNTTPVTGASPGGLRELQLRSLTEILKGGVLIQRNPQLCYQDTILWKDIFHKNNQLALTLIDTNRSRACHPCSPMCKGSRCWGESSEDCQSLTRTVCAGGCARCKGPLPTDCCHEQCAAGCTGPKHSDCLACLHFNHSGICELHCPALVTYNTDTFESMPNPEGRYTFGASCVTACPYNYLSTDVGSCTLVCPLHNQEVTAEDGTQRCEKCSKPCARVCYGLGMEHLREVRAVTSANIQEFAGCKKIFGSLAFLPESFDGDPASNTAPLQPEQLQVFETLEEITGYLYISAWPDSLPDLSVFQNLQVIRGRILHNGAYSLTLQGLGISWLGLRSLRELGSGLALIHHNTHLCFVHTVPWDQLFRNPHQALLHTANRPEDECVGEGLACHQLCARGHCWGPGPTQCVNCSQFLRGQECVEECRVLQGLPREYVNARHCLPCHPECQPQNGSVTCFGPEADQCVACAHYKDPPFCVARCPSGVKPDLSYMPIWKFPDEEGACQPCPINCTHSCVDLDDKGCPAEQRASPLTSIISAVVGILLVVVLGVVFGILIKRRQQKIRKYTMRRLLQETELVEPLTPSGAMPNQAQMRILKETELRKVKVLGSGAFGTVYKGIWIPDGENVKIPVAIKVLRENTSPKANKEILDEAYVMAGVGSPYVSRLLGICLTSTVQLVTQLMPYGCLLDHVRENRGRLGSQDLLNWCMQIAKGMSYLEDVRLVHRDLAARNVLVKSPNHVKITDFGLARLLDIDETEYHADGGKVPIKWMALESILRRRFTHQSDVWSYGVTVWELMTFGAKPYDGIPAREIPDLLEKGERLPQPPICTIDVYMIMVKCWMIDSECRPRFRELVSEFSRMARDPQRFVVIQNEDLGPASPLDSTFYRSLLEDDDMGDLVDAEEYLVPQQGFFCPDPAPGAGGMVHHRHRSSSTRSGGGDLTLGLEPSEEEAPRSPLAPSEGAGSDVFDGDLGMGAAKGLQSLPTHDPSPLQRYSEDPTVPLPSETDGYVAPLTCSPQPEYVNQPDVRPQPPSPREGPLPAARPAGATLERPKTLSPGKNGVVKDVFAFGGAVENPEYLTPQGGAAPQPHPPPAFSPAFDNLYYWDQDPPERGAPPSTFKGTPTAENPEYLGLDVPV

Work on `CC(C)COC(=O)c1[nH]c2ccc(F)cc2c1-c1cn(CC2CCN(CCNS(=O)(=O)c3ccc(CC(C)C)cc3)CC2)nn1` [AB668, isobutyl 5-fluoro-3-(1-((1-(2-((4-isobutylphenyl)sulfonamido)ethyl)piperidin-4-yl)methyl)-1H-1,2,3-triazol-4-yl)-1H-indole-2-carboxylate] yielded a remaining activity at 2 µM [1] of 71%, a remaining activity at 2 µM [2] of 85% and a remaining activity at 2 µM [3] of 100%. It also gave a remaining activity at 2 µM [4] of 88%, a remaining activity at 2 µM [5] of 100% and a remaining activity at 2 µM [6] of 93%. It also gave a remaining activity at 2 µM [7] of 80%, a remaining activity at 2 µM [8] of 91% and a remaining activity at 2 µM [9] of 94%. For the same compound, the remaining activity at 2 µM [10] was 92%, the remaining activity at 2 µM [11] was 92% and the remaining activity at 2 µM [12] was 100%. For the same compound, the remaining activity at 2 µM [13] was 100%, the remaining activity at 2 µM [14] was 100% and the remaining activity at 2 µM [15] was 96%. The remaining activity at 2 µM [16] was 76%, the remaining activity at 2 µM [17] was 93% and the remaining activity at 2 µM [18] was 99%. The remaining activity at 2 µM [19] was 100%, the remaining activity at 2 µM [20] was 97% and the remaining activity at 2 µM [21] was 88%. The remaining activity at 2 µM [22] was 100%, the remaining activity at 2 µM [23] was 87% and the remaining activity at 2 µM [24] was 70%. For the same compound, the remaining activity at 2 µM [25] was 94%, the remaining activity at 2 µM [26] was 82% and the remaining activity at 2 µM [27] was 87%. For the same compound, the remaining activity at 2 µM [28] was 88%, the remaining activity at 2 µM [29] was 100% and the remaining activity at 2 µM [30] was 98%. For the same compound, the remaining activity at 2 µM [31] was 94%, the remaining activity at 2 µM [32] was 100% and the remaining activity at 2 µM [33] was 100%. For the same compound, the remaining activity at 2 µM [34] was 100%, the remaining activity at 2 µM [35] was 100% and the remaining activity at 2 µM [36] was 90%. For the same compound, the remaining activity at 2 µM [37] was 90%, the remaining activity at 2 µM [38] was 89% and the remaining activity at 2 µM [39] was 82%. For the same compound, the remaining activity at 2 µM [40] was 78%, the remaining activity at 2 µM [41] was 87% and the remaining activity at 2 µM [42] was 87%. For the same compound, the remaining activity at 2 µM [43] was 91%.
